The text below walks through data of US9938273B2 (Plexxikon Inc., priority 2015, dated 2018).

pIC50: −log10 of the molar value.

In experiment [1] the target is T1, c-KIT (Homo sapiens, UniProt P10721).
T1 construct: purchased Millipore 14-559K
Put plainly: AlphaScreen kinase assay with recombinant enzyme, c-KIT. The experiment is classed as biochemical. Conditions: 100ATP, 8pt, GMean. As for the experimental part:
In order to determine the effect of compounds on FLT3 catalytic activity, kinase assays using recombinant enzymes and AlphaScreen® technology have been established. The catalytic activity of c-kit activity was also measured to determine selectivity of the compounds. When the kinases are catalytically active, they phosphorylate a biotinylated peptide substrate on tyrosine residues. Using AlphaScreen® technology, the ability of the compounds to affect the catalytic activity of the kinases can be measured quantitatively. The peptide substrate is immobilized by the AlphaScreen® Streptavidin Donor beads and, upon phosphorylation by a tyrosine kinase, can bind to AlphaScreen® Anti-Phosphotyrosine (PY20) Acceptor beads. Upon excitation of these beads with laser light at 680 nm, singlet oxygen is produced. This singlet oxygen is rapidly quenched, unless the AlphaScreen® Anti-Phosphotyrosine (PY20) Acceptor beads are in close proximity, in which case a proximity signal can be measured at 580 nm. In the presence of catalytic activity, there is a very strong proximity signal. Selective kinase inhibitors affect a decrease in this proximity signal through a decrease in tyrosine phosphorylation of the peptide substrate.
The assay was performed as summarized below.
Poly (Glu4-Tyr) Peptide, biotin conjugate [Biotin-GG(EEEEY)10EE] (SEQ ID NO: 4)
Final concentration=30 nM
Final concentration for IC50 determination=10 μM (FLT3-D835Y or FLT3-ITD) or 100 μM (c-KIT)
AlphaScreen® Phosphotyrosine (PY20) Assay Kit
Final concentration=10 μg/mL
Dilute compounds in DMSO to 20× final concentration.
Add 1 μl of compound to each well of 384 well reaction plate (Perkin Elmer #6005359).
Mix enzyme and Poly (Glu4-Tyr) Peptide substrate at 1.33× final concentration in assay buffer.
Mix ATP at 5× final concentration in assay buffer.
Add 15 μL enzyme/substrate mixture to the reaction plate.
Add 4 μL of ATP to the reaction plate.
Mix Streptavidin Donor beads at 6× final concentration in Stop/Detection buffer.
Add 5 μL Streptavidin Donor beads to the reaction plate. Centrifuge 1 minute, shake to mix, and incubate at room temperature for 20 minutes.
Mix Anti-Phosphotyrosine (PY20) Acceptor beads at 6× final concentration in Stop/Detection buffer.
Add 5 μL Anti-Phosphotyrosine (PY20) beads to the reaction plate.
Centrifuge 1 minute, shake to mix, and incubate at room temperature for 60 minutes.
Read plate on Wallac EnVision™ 2103 Multilabel Reader.

Experiment [2] addresses T2, BA/F3-FLT3-ITD + D835Y cells (Homo sapiens, UniProt P36888, D835Y, cells depend on it, form not given).
T2 sequence (P36888 1-993 D835Y): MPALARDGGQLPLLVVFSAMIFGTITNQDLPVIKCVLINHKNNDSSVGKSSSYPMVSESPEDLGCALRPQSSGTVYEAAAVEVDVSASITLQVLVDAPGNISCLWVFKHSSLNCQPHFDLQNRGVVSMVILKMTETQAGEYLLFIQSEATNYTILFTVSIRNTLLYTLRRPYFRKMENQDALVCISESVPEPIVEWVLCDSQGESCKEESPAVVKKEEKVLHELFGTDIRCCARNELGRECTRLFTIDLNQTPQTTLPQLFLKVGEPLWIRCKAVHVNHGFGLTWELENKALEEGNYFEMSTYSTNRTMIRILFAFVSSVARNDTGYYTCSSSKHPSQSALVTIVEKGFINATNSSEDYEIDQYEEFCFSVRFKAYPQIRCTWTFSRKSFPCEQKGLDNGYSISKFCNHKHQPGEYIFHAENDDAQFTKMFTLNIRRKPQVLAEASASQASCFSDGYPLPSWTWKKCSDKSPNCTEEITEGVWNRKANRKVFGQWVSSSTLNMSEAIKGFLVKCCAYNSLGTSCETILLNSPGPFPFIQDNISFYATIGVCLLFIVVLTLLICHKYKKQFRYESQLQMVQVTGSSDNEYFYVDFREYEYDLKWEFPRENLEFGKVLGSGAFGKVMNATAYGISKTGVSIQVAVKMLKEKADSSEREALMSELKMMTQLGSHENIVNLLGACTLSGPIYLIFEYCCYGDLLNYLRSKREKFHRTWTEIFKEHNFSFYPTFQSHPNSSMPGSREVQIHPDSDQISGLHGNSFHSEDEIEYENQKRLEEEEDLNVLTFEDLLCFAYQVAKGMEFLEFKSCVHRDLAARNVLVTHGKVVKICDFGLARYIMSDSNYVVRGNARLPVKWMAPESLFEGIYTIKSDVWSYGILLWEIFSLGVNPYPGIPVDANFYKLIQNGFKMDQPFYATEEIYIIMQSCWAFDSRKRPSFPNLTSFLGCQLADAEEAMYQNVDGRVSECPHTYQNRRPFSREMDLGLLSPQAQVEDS
Briefly: Cell proliferation assay (CellTiter-Glo), engineered BA/F3 cells. As to conditions: BaF3 FLT3 ITD/D835Y cells, 3d-Growth; read-out: BaF3_FLT3 ITD/D835Y 3d-Growth: IC50. The class given is cell-based, murine. The text has this:
The FLT3 inhibitors may be assessed using the MOLM-14, Acute Myeloid Leukemia cell line that endogenously expresses FLT3 ITD or derivatives of the human FLT3 AML cell line which acquired the D835Y (activation loop) of F691L (gatekeeper) mutation after selection in escalating doses of the FLT3 Inhibitor AC220. FLT3 inhibitors may also be assessed using cells that are engineered to express mutant FLT3. For engineered cells, murine Ba/F3 cells were transfected with full-length FLT3 ITD/D835Y mutations. The parental BA/F3 cells are dependent upon Interleukin-3 (IL-3) for survival, and introduction of the FLT3 constructs rendered these cells dependent upon FLT3 kinase activity when cultured in the absences of IL-3. Engineered BA/F3 cell growth assays can be performed in either the […] of IL-3, to assess the compound inhibition of FLT3 or to detect the presence of off-target activity, respectively. Inhibitors of FLT3 kinase activity reduce or eliminate the FLT3 oncogenic signaling, resulting in reduced cell proliferation. This inhibition is measured as a function of compound concentration to asses IC50 values.
Cell lines used in proliferation assays are as follows in Table 3:
Cells were seeded at 1×10^4 cells per well of a 96 well cell culture plate in 50 μl of cell culture medium. Compounds were dissolved in DMSO, typically at a concentration of 0.5 mM and were serially diluted 1:3 for a total of eight points and added to the cells to final concentrations of […], 0.0041, 0.0014 and 0.00046 μM in 100 μl cell culture medium (final concentration 0.2% DMSO). […] The cells were incubated at 37° C., 5% CO2 for three days. CellTiter-Glo Buffer (Promega Cell Viability Assay catalog #G7573) and substrate were equilibrated to room temperature, and enzyme/substrate Recombinant Firefly Luciferase/Beetle Luciferin was reconstituted. The cell plates were equilibrated to room temperature for 30 minutes, then lysed by addition of an equivalent volume of the Celltiter-Glo Reagent. The plate was mixed for 10 minutes on a plate shaker to lyse the cells. The plates were read on a Tecan M1000 using Luminescence protocol modified to read 0.1 s per well. The luminescence reading assesses the ATP content, which correlates directly with cell number such that the reading as a function of compound concentration was used to determine the IC50 value.

T1 sequence (P10721 26-976): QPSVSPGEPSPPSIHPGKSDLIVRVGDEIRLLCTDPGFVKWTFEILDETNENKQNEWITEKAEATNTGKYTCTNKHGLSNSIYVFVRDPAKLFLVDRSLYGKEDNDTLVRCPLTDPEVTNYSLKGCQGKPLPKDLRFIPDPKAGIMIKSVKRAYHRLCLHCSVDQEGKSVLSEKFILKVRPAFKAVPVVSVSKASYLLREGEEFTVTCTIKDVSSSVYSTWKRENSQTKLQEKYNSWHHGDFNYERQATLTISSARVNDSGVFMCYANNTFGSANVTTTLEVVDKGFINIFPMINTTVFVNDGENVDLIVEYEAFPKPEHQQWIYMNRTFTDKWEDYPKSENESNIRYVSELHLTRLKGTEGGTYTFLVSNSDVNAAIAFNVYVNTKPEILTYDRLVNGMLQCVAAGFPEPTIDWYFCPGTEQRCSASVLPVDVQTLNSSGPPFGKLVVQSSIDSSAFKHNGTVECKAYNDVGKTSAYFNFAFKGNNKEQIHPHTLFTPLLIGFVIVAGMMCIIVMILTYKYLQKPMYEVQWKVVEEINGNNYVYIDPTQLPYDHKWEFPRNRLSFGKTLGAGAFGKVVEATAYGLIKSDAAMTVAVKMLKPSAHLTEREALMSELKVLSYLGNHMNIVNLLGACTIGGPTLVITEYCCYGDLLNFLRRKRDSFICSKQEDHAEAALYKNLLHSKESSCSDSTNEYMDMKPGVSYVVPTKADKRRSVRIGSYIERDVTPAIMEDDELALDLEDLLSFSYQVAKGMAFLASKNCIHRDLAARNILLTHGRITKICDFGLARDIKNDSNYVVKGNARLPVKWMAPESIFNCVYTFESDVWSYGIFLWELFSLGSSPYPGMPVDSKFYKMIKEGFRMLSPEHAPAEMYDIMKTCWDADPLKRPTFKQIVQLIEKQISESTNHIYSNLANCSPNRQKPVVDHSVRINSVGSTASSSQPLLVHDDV

As to `O=C(c1cccc(-c2cnc3[nH]c(-c4ccccc4)cc3c2)n1)N1CCC(F)(F)C1` [Compound P-0093, (3,3-difluoropyrrolidin-1-yl)-[6-(2-phenyl-1H-pyrrolo[2,3-b]pyridin-5-yl)-2-pyridyl]methanone], the pIC50 in experiment [1] was 4.00 to 4.30. Besides, in experiment [2], the GI50 was 0.0001 to 10 µM.

For `COC1CCN(C(=O)c2cccc(-c3cnc4[nH]c(-c5ccccc5)cc4c3)n2)C1` (stereo not drawn) [Compound P-0095, (3-methoxypyrrolidin-1-yl)-[6-(2-phenyl-1H-pyrrolo[2,3-b]pyridin-5-yl)-2-pyridyl]methanone], the pIC50 in experiment [1] is 4.30 to 5.00. Moreover, the GI50 in experiment [2] was 0.0001 to 10 µM. For `CNC(=O)C1CCN(C(=O)c2cccc(-c3cnc4[nH]c(-c5ccccc5)cc4c3)n2)C1` (stereo not drawn) [Compound P-0096, N-methyl-1-[6-(2-phenyl-1H-pyrrolo[2,3-b]pyridin-5-yl)pyridine-2-carbonyl]pyrrolidine-3-carboxamide], in that order: 4.30 to 5.00 and 0.0001 to 10 µM. For `O=C(c1cccc(-c2cnc3[nH]c(-c4ccccc4)cc3c2)n1)N1CCC(n2ccnc2)C1` (stereo not drawn) [Compound P-0097, (3-imidazol-1-ylpyrrolidin-1-yl)-[6-(2-phenyl-1H-pyrrolo[2,3-b]pyridin-5-yl)-2-pyridyl]methanone], in that order: 5.00 to 10.00 and 0.0001 to 10 µM. Taken in the same sequence, the figures for `N#CCCNC(=O)c1cccc(-c2cnc3[nH]c(-c4ccccc4)cc3c2)n1` [Compound P-0099, N-(2-cyanoethyl)-6-(2-phenyl-1H-pyrrolo[2,3-b]pyridin-5-yl)pyridine-2-carboxamide] were 4.00 to 4.30 and 0.0001 to 10 µM.

`CC(C)(C#N)CNC(=O)c1cccc(-c2cnc3[nH]c(-c4ccccc4)cc3c2)n1` [Compound P-0100, N-(2-cyano-2-methyl-propyl)-6-(2-phenyl-1H-pyrrolo[2,3-b]pyridin-5-yl)pyridine-2-carboxamide]: the pIC50 in experiment [1] was 4.30 to 5.00. The GI50 in experiment [2] fell in the range of 0.0001 to 10 µM. For `N#CC1CCN(C(=O)c2cccc(-c3cnc4[nH]c(-c5ccccc5)cc4c3)n2)C1` (stereo not drawn) [Compound P-0105, 1-[6-(2-phenyl-1H-pyrrolo[2,3-b]pyridin-5-yl)pyridine-2-carbonyl]pyrrolidine-3-carbonitrile], in that order: 4.30 to 5.00 and 0.0001 to 10 µM. For `CN[C@@H]1CCN(C(=O)c2ccc(-c3cnc4[nH]c(-c5ccccc5)cc4c3)s2)C1` [Compound P-0106, [(3R)-3-(methylamino)pyrrolidin-1-yl]-[5-(2-phenyl-1H-pyrrolo[2,3-b]pyridin-5-yl)-2-thienyl]methanone], the negative logarithm of the IC50 (pIC50) in experiment [1] was 5.00 to 10.00. Also, the GI50 in experiment [2] lay within 0.0001 to 10 µM. Taken in the same sequence, the figures for `CS(=O)(=O)N1CCC(NS(=O)(=O)c2cccc(-c3cnc4[nH]c(-c5ccccc5)cc4c3)n2)C1` (stereo not drawn) [Compound P-0107, N-(1-methylsulfonylpyrrolidin-3-yl)-6-(2-phenyl-1H-pyrrolo[2,3-b]pyridin-5-yl)pyridine-2-sulfonamide] were 4.00 to 4.30 and 0.0001 to 10 µM. For `O=S(=O)(NC1CC1)c1cccc(-c2cnc3[nH]c(-c4ccccc4)cc3c2)n1` [Compound P-0109, N-cyclopropyl-6-(2-phenyl-1H-pyrrolo[2,3-b]pyridin-5-yl)pyridine-2-sulfonamide], in that order: 4.00 to 4.30 and 0.0001 to 10 µM. Regarding `N#CC1(NC(=O)c2cccc(-c3cnc4[nH]c(-c5ccccc5)cc4c3)n2)CC1` [Compound P-0111, N-(1-cyanocyclopropyl)-6-(2-phenyl-1H-pyrrolo[2.3-b]pyridin-5-yl]pyridine-2-carboxamide], the GI50 in experiment [2] lay in the range of 0.0001 to 10 µM. As for `N#CC1CCN(S(=O)(=O)c2cccc(-c3cnc4[nH]c(-c5ccccc5)cc4c3)n2)C1` (stereo not drawn) [Compound P-0121, 1-[[6-(2-phenyl-1H-pyrrolo[2,3-b]pyridin-5-yl)-2-pyridyl]sulfonyl]pyrrolidine-3-carbonitrile], the GI50 in experiment [2] was in the range of 0.0001 to 10 µM. Same read-out and setting: the same measure for `N#C[C@@H]1CCN(C(=O)c2cccc(-c3cnc4[nH]c(-c5ccccc5)cc4c3)n2)C1` [Compound P-0122, (3R)-1-[6-(2-phenyl-1H-pyrrolo[2,3-b]pyridin-5-yl)pyridine-2-carbonyl]pyrrolidine-3-carbonitrile]: 0.0001 to 10 µM; for `N#CCCNC(=O)c1cccc(-c2cnc3[nH]c(-c4ccccc4)c(Cl)c3c2)n1` [Compound P-0125, 6-(3-chloro-2-phenyl-1H-pyrrolo[2,3-b]pyridin-5-yl)-N-(2-cyanoethyl)pyridine-2-carboxamide]: 0.0001 to 10 µM. Same read-out and setting: the same measure for `CC(C)(C#N)CNC(=O)c1cccc(-c2cnc3[nH]c(-c4ccccc4)c(Br)c3c2)n1` [Compound P-0126, 6-(3-bromo-2-phenyl-1H-pyrrolo[2,3-b]pyridin-5-yl)-N-(2-cyano-2-methyl-propyl)pyridine-2-carboxamide]: 0.0001 to 10 µM; for `CC(C)(C#N)CNC(=O)c1cccc(-c2cnc3[nH]c(-c4ccccc4)c(I)c3c2)n1` [Compound P-0127, N-(2-cyano-2-methyl-propyl)-6-(3-iodo-2-phenyl-1H-pyrrolo[2,3-b]pyridin-5-yl)pyridine-2-carboxamide]: 0.0001 to 10 µM. For the compound `CC(C)(C#N)NC(=O)c1cccc(-c2cnc3[nH]c(-c4cnn(C(F)F)c4)cc3c2)n1` [Compound P-0164, N-(2-cyanopropan-2-yl)-6-(2-(1-(difluoromethyl)-1H-pyrazol-4-yl)-1H-pyrrolo[2,3-b]pyridin-5-yl)picolinamide], the pIC50 in experiment [1] was 4.00 to 4.30.
